From ChEMBL document CHEMBL5346892, “Design and synthesis of benzochromene derivatives as AcrB inhibitors for the reversal of bacterial multidrug resistance” (Eur J Med Chem, 2023)
Calls of active or inactive are those of the source. The calls are words filed in the database; no cut-off is given here. Peptide text beside a SMILES is read from it.

Assays:
Escherichia coli [1] = test: Synergistic antibacterial activity against wild type Escherichia coli BW25113 assessed as erythromycin MIC at 32 microg/ml incubated for 18 hrs by broth dilution assay; type: functional; settings: dose 32 µg/ml
Escherichia coli [2] = test: Synergistic antibacterial activity against wild type Escherichia coli BW25113 assessed as minocycline MIC at 128 microg/ml incubated for 18 hrs by broth dilution assay; type: functional; settings: dose 128 µg/ml
Escherichia coli [3] = test: Synergistic antibacterial activity against wild type Escherichia coli BW25113 assessed as levofloxacin MIC at 8 microg/ml incubated for 18 hrs by broth dilution assay; type: functional; settings: dose 8 µg/ml
Escherichia coli [4] = test: Synergistic antibacterial activity against wild type Escherichia coli BW25113 assessed as erythromycin MIC at 8 microg/ml incubated for 18 hrs by broth dilution assay; type: functional; settings: dose 8 µg/ml
Escherichia coli [5] = test: Synergistic antibacterial activity against wild type Escherichia coli BW25113 assessed as levofloxacin MIC at 32 microg/ml incubated for 18 hrs by broth dilution assay; type: functional; settings: dose 32 µg/ml
Escherichia coli [6] = test: Synergistic antibacterial activity against wild type Escherichia coli BW25113 assessed as levofloxacin MIC at 16 microg/ml incubated for 18 hrs by broth dilution assay; type: functional; settings: dose 16 µg/ml
Escherichia coli [7] = test: Synergistic antibacterial activity against wild type Escherichia coli BW25113 assessed as minocycline MIC at 32 microg/ml incubated for 18 hrs by broth dilution assay; type: functional; settings: dose 32 µg/ml
Escherichia coli [8] = test: Synergistic antibacterial activity against wild type Escherichia coli BW25113 assessed as erythromycin MIC at 64 microg/ml incubated for 18 hrs by broth dilution assay; type: functional; settings: dose 64 µg/ml
Escherichia coli [9] = test: Synergistic antibacterial activity against wild type Escherichia coli BW25113 assessed as levofloxacin MIC at 128 microg/ml incubated for 18 hrs by broth dilution assay; type: functional; settings: dose 128 µg/ml
Escherichia coli [10] = test: Synergistic antibacterial activity against wild type Escherichia coli BW25113 assessed as erythromycin MIC at 128 microg/ml incubated for 18 hrs by broth dilution assay; type: functional; settings: dose 128 µg/ml
Escherichia coli [11] = test: Synergistic antibacterial activity against wild type Escherichia coli BW25113 assessed as minocycline MIC at 16 microg/ml incubated for 18 hrs by broth dilution assay; type: functional; settings: dose 16 µg/ml
Escherichia coli [12] = test: Synergistic antibacterial activity against wild type Escherichia coli BW25113 assessed as minocycline MIC at 8 microg/ml incubated for 18 hrs by broth dilution assay; type: functional; settings: dose 8 µg/ml
Escherichia coli [13] = test: Synergistic antibacterial activity against wild type Escherichia coli BW25113 assessed as minocycline MIC at 64 microg/ml incubated for 18 hrs by broth dilution assay; type: functional; settings: dose 64 µg/ml
Escherichia coli [14] = test: Synergistic antibacterial activity against wild type Escherichia coli BW25113 assessed as erythromycin MIC at 16 microg/ml incubated for 18 hrs by broth dilution assay; type: functional; settings: dose 16 µg/ml
Escherichia coli [15] = test: Synergistic antibacterial activity against wild type Escherichia coli BW25113 assessed as levofloxacin MIC at 64 microg/ml incubated for 18 hrs by broth dilution assay; type: functional; settings: dose 64 µg/ml
[16] = Toxicity in Caenorhabditis elegans assessed as survival rate at 128 microg/ml measured after 72 hrs by light microscopic analysis; settings: at 128 µg/mL
Escherichia coli [17] = test: Synergistic antibacterial activity against wild type Escherichia coli BW25113 assessed as erythromycin MIC at 32 microg/ml incubated for 18 hrs in presence of colistin by broth dilution assay; type: functional; settings: dose 32 µg/ml
Escherichia coli [18] = test: Synergistic antibacterial activity against wild type Escherichia coli BW25113 assessed as levofloxacin MIC at 16 microg/ml incubated for 18 hrs in presence of colistin by broth dilution assay; type: functional; settings: dose 16 µg/ml
Escherichia coli [19] = test: Synergistic antibacterial activity against wild type Escherichia coli BW25113 assessed as levofloxacin MIC at 64 microg/ml incubated for 18 hrs in presence of colistin by broth dilution assay; type: functional; settings: dose 64 µg/ml
Escherichia coli [20] = test: Synergistic antibacterial activity against wild type Escherichia coli BW25113 assessed as erythromycin MIC at 64 microg/ml incubated for 18 hrs in presence of colistin by broth dilution assay; type: functional; settings: dose 64 µg/ml
Cell membrane = test: Induction of inner membrane permeabilization in Escherichia coli BW25113 assessed as increase in fluorescence intensity at 64 microg/ml incubated for 10 mins by DiOC2 dye based fluorimeter analysis; type: subcellular; settings: dose 64.0 µg/ml
Escherichia coli [21] = test: Synergistic antibacterial activity against wild type Escherichia coli BW25113 assessed as levofloxacin MIC at 32 microg/ml incubated for 18 hrs in presence of colistin by broth dilution assay; type: functional; settings: dose 32 µg/ml
Escherichia coli [22] = test: Synergistic antibacterial activity against wild type Escherichia coli BW25113 assessed as levofloxacin MIC at 128 microg/ml incubated for 18 hrs in presence of colistin by broth dilution assay; type: functional; settings: dose 128 µg/ml
Escherichia coli [23] = test: Synergistic antibacterial activity against wild type Escherichia coli BW25113 assessed as minocycline MIC at 8 microg/ml incubated for 18 hrs in presence of colistin by broth dilution assay; type: functional; settings: dose 8 µg/ml
Escherichia coli [24] = test: Synergistic antibacterial activity against wild type Escherichia coli BW25113 assessed as erythromycin MIC at 16 microg/ml incubated for 18 hrs in presence of colistin by broth dilution assay; type: functional; settings: dose 16 µg/ml
[25] = Hemolytic activity in mouse RBC assessed as hemolysis at 4 to 256 microg/ml incubated for 1 hr by microplate reader analysis; type: toxicity, cell-based, Erythrocyte; settings: mouse red blood cells (erythrocytes), at 4 to 256 µg/mL, dose 4-256 µg/ml, read-out: Activity
Escherichia coli [26] = test: Synergistic antibacterial activity against wild type Escherichia coli BW25113 assessed as erythromycin MIC at 8 microg/ml incubated for 18 hrs in presence of colistin by broth dilution assay; type: functional; settings: dose 8 µg/ml
Escherichia coli [27] = test: Synergistic antibacterial activity against wild type Escherichia coli BW25113 assessed as minocycline MIC at 16 microg/ml incubated for 18 hrs in presence of colistin by broth dilution assay; type: functional; settings: dose 16 µg/ml
Escherichia coli [28] = test: Synergistic antibacterial activity against wild type Escherichia coli BW25113 assessed as levofloxacin MIC at 8 microg/ml incubated for 18 hrs in presence of colistin by broth dilution assay; type: functional; settings: dose 8 µg/ml
Escherichia coli [29] = test: Synergistic antibacterial activity against wild type Escherichia coli BW25113 assessed as minocycline MIC at 32 microg/ml incubated for 18 hrs in presence of colistin by broth dilution assay; type: functional; settings: dose 32 µg/ml
Escherichia coli [30] = test: Synergistic antibacterial activity against wild type Escherichia coli BW25113 assessed as fold decrease in erythromycin MIC at 128 microg/ml incubated for 18 hrs by checkboard based microplate reader analysis; type: functional; settings: dose 128 µg/ml
Escherichia coli [31] = test: Synergistic antibacterial activity against wild type Escherichia coli BW25113 assessed as minocycline MIC at 64 microg/ml incubated for 18 hrs in presence of colistin by broth dilution assay; type: functional; settings: dose 64 µg/ml
Escherichia coli [32] = test: Synergistic antibacterial activity against wild type Escherichia coli BW25113 assessed as erythromycin MIC at 128 microg/ml incubated for 18 hrs in presence of colistin by broth dilution assay; type: functional; settings: dose 128 µg/ml
Escherichia coli [33] = test: Synergistic antibacterial activity against wild type Escherichia coli BW25113 assessed as minocycline MIC at 128 microg/ml incubated for 18 hrs in presence of colistin by broth dilution assay; type: functional; settings: dose 128 µg/ml
Escherichia coli [34] = test: Synergistic antibacterial activity against wild type Escherichia coli BW25113 assessed as minocycline MIC at 4 microg/ml incubated for 18 hrs in presence of colistin by broth dilution assay; type: functional; settings: dose 4 µg/ml
[35] = molecular target: T1, Multidrug efflux pump subunit AcrB (Escherichia coli (strain K12)) (UniProt P31224); test: Inhibition of Escherichia coli BW25113 AcrB assessed as inhibition of nile red efflux at 50 uM incubated for 15 mins
T1 sequence (whole entry): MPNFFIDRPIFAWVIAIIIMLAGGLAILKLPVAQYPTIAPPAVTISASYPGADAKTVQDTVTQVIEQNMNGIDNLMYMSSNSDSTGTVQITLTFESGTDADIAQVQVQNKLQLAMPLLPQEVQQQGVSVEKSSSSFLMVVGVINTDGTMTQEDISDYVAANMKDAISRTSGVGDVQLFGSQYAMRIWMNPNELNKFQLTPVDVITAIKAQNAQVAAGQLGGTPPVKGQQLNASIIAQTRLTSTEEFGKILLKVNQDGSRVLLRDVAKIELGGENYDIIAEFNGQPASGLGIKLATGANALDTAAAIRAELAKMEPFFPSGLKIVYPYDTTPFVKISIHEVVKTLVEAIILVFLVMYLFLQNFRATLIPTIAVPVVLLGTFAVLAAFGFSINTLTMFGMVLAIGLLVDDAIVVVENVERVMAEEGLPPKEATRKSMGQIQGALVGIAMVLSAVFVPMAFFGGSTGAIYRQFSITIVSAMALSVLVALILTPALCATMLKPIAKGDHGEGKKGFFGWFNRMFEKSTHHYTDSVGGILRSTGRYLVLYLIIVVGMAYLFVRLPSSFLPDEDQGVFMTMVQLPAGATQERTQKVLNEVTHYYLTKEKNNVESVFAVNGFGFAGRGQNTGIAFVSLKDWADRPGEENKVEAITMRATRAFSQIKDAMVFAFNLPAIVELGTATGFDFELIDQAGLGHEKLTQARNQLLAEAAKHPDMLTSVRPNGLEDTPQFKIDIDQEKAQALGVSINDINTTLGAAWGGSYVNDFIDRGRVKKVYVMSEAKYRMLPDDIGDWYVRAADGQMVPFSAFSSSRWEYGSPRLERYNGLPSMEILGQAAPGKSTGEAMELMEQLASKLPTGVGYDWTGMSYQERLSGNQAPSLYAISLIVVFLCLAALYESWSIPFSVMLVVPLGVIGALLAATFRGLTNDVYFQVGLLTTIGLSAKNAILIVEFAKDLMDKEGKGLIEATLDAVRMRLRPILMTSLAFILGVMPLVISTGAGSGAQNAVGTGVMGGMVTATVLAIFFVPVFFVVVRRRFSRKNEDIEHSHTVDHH

Escherichia coli [36] = test: Synergistic antibacterial activity against wild type Escherichia coli BW25113 assessed as fold decrease in levofloxacin MIC at 8 microg/ml incubated for 18 hrs by checkboard based microplate reader analysis; type: functional; settings: dose 8 µg/ml

| SMILES | MIC (Escherichia coli [1]) [µg/mL] | MIC (Escherichia coli [2]) [µg/mL] | MIC (Escherichia coli [3]) [µg/mL] | MIC (Escherichia coli [4]) [µg/mL] | MIC (Escherichia coli [5]) [µg/mL] | MIC (Escherichia coli [6]) [µg/mL] | MIC (Escherichia coli [7]) [µg/mL] | MIC (Escherichia coli [8]) [µg/mL] | MIC (Escherichia coli [9]) [µg/mL] | MIC (Escherichia coli [10]) [µg/mL] | MIC (Escherichia coli [11]) [µg/mL] | MIC (Escherichia coli [12]) [µg/mL] | MIC (Escherichia coli [13]) [µg/mL] | MIC (Escherichia coli [14]) [µg/mL] | MIC (Escherichia coli [15]) [µg/mL] | survival at 72 h, 128 microg/ml [16] [%] | MIC (Escherichia coli [17]) [µg/mL] | MIC (Escherichia coli [18]) [µg/mL] | MIC (Escherichia coli [19]) [µg/mL] | MIC (Escherichia coli [20]) [µg/mL] | other results |
| --- | --- | --- | --- | --- | --- | --- | --- | --- | --- | --- | --- | --- | --- | --- | --- | --- | --- | --- | --- | --- | --- |
| N=C(N)NCCC[C@H](NC(=O)[C@@H](N)Cc1ccccc1)C(=O)Nc1ccc2ccccc2c1 [PABETAN] (HELM PEPTIDE1{F.R.[c1ccc2cc(N[*:1])ccc2c1]}$$$$V2.0) | 4 | 0.25 | 0.016 | 16 | 0.008 | 0.008 | 0.5 | 4 | 0.001 | 2 | 0.5 | 0.5 | 0.5 | 8 | 0.008 |  |  |  |  |  |  |
| CC1(C)CCc2c(C(=O)N3CCOCC3)cc3c(OCCOc4ccc([N+](=O)[O-])cc4)cccc3c2O1 | 64 | 2 | 0.032 | 64 | 0.032 | 0.032 | 2 | 32 | 0.032 | 16 | 2 | 2 | 2 | 64 | 0.032 | 90 | 8 | 0.032 | 0.032 | 8 | Activity (Cell membrane): inactive; MIC (Escherichia coli [21]): 0.032 µg/mL; MIC (Escherichia coli [22]): 0.032 µg/mL; MIC (Escherichia coli [23]): 1 µg/mL; MIC (Escherichia coli [24]): 8 µg/mL; hemolysis at 1 h [25]: < 5%; MIC (Escherichia coli [26]): 8 µg/mL; MIC (Escherichia coli [27]): 1 µg/mL; MIC (Escherichia coli [28]): 0.032 µg/mL; MIC (Escherichia coli [29]): 1 µg/mL; fold change (FC) (Escherichia coli [30]): 4; MIC (Escherichia coli [31]): 0.5 µg/mL; MIC (Escherichia coli [32]): 4 µg/mL; MIC (Escherichia coli [33]): 0.5 µg/mL |
| CC1(C)CCc2c(C(=O)N3CCOCC3)cc3c(OCCCSc4ccc(N)cc4)cccc3c2O1 | 64 | 1 | 0.008 | 64 | 0.008 | 0.008 | 1 | 64 | 0.008 | 64 | 1 |  | 1 | 64 | 0.008 | 90 | 8 | 0.016 | 0.008 | 8 | MIC (Escherichia coli [34]): 1 µg/mL; inhibition [35]: Active; fold change (FC) (Escherichia coli [36]): 4; Activity (Cell membrane): inactive; MIC (Escherichia coli [21]): 0.016 µg/mL; MIC (Escherichia coli [23]): 1 µg/mL; MIC (Escherichia coli [24]): 8 µg/mL; hemolysis at 1 h [25]: < 5%; MIC (Escherichia coli [26]): 8 µg/mL; MIC (Escherichia coli [27]): 1 µg/mL; MIC (Escherichia coli [28]): 0.032 µg/mL; MIC (Escherichia coli [29]): 1 µg/mL; MIC (Escherichia coli [31]): 0.5 µg/mL |
| CC1(C)S[C@@H]2[C@H](NC(=O)[C@H](N)c3ccccc3)C(=O)N2[C@H]1C(=O)O [AMPICILLIN] |  |  |  |  |  |  |  |  |  |  |  |  |  |  |  | 99 |  |  |  |  |  |
